Test results published in patent US20260374754A1, “N-((ISOQUINOLIN-6-YL)METHYL)-1H-PYRAZOLE-4-CARBOXAMIDE DERIVATIVES AS PLASMA KALLIKREIN INHIBITORS FOR THE TREATMENT OF HEREDITARY ANGIODEMA” (Takeda Pharmaceutical Company Limited, priority 2022, published 2026).
Where a name gives a salt, the structure may show the parent alone.

Target: human activated kallikrein enzyme (Homo sapiens, UniProt P03952)
Test: Inhibition of human activated plasma kallikrein, fluorogenic PFR-AMC substrate, 500 pM enzyme format
Assay type: biochemical
Conditions: 500 pM activated kallikrein; 300 μM PFR-AMC; 30 min preincubation; 10 min room temperature; pH 7.5; read-out: Primary Dose Response Assay: Average EC50
Method in brief: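 Using fluorogenic PFR-AMC at 300 μM, cleavage by 500 pM human activated kallikrein ran 10 min at room temperature, read at 460 nm emission (380 nm excitation). Enzyme and compounds were first preincubated 30 min in 20 mM Tris pH 7.5, 150 mM NaCl, 1 mM EDTA, 0.1% PEG-400, 0.1% Triton X-100.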

human activated kallikrein enzyme, sequence (P03952 391-638 limits assumed): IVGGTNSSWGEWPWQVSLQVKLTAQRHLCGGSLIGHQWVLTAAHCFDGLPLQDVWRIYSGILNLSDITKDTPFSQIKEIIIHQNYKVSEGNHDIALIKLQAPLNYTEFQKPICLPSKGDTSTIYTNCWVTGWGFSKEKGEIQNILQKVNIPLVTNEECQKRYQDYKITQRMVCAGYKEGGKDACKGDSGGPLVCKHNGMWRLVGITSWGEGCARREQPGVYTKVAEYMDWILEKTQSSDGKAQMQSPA
human activated kallikrein enzyme, sequence (P03952 20-390 partner limits assumed): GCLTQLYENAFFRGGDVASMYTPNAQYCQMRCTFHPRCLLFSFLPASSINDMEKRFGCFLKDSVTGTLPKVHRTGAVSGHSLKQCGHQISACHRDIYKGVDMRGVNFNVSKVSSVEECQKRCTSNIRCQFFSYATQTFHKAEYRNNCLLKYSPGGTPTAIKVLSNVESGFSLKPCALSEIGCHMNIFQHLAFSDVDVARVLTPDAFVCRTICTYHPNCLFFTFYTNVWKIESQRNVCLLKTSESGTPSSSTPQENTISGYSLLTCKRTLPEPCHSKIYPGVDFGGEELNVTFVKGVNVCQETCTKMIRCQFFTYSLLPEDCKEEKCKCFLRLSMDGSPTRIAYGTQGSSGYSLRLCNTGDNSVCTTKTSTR

Structure (SMILES) | EC50 [nM]
Cc1ccnc(Cc2ccc(CNc3cc(NCc4c(C)cc5c(N)nccc5c4C)ncn3)cc2)c1 [Example 364, N^4-((1-amino-5,7-dimethylisoquinolin-6-yl)methyl)-N^6-(4-((4-methylpyridin-2-yl)methyl)benzyl)pyrimidine-4,6-diamine] | < 1
Cc1cc2c(N)nccc2c(C)c1CNc1cc(NCc2ccc(Cc3ncccc3Cl)cc2)ncn1 [Example 365, N^4-((1-amino-5,7-dimethylisoquinolin-6-yl)methyl)-N^6-(4-((3-chloropyridin-2-yl)methyl)benzyl)pyrimidine-4,6-diamine] | 1 to 10
Cc1cc2c(N)nccc2c(C)c1CNc1cc(NC(C)c2ccc(Cc3ccccn3)cc2)ncn1 (stereo not drawn) [Example 366, N^4-((1-amino-5,7-dimethylisoquinolin-6-yl)methyl)-N^6-(1-(4-(pyridin-2-ylmethyl)phenyl)ethyl)pyrimidine-4,6-diamine] | < 1
Cc1cc(CNc2cc(NCc3c(C)cc4c(N)nccc4c3C)ncn2)cc(C)c1Cc1ccccn1 [Example 368, N^4-((1-amino-5,7-dimethylisoquinolin-6-yl)methyl)-N^6-(3,5-dimethyl-4-(pyridin-2-ylmethyl)benzyl)pyrimidine-4,6-diamine] | < 1
Cc1cc2c(N)nccc2c(C)c1CNc1cc(NCc2ccc(Cc3ccc(Cl)cn3)cc2)ncn1 [Example 369, N^4-((1-amino-5,7-dimethylisoquinolin-6-yl)methyl)-N^6(4-((5-chloropyridin-2-yl)methyl)benzyl)pyrimidine-4,6-diamine] | 1 to 10
Cc1cc2c(N)nccc2c(C)c1CNc1cc(OCc2cccc(-n3ccccc3=O)c2)ncn1 [Example 370, 1-(3-(((6-(((1-amino-5,7-dimethylisoquinolin-6-yl)methyl)amino)pyrimidin-4-yl)oxy)methyl)phenyl)pyridin-2(1H)-one] | 100 to 1000
Cc1ccc2ncc(COc3cc(NCc4c(C)cc5c(N)nccc5c4C)ncn3)cc2c1 [Example 372, 5,7-dimethyl-6-(((6-((6-methylquinolin-3-yl)methoxy)pyrimidin-4-yl)amino)methyl)isoquinolin-1-amine formic acid salt] | 1 to 10
Cc1cc2c(N)nccc2c(C)c1CNc1cc(OCc2ccc3ncccc3c2)ncn1 [Example 374, 5,7-dimethyl-6-(((6-(quinolin-6-ylmethoxy)pyrimidin-4-yl)amino)methyl)isoquinolin-1-amine] | 10 to 100
Cc1cc2c(N)nccc2c(C)c1CNc1cc(NCc2ccc(OCC(=O)N(C)C)cc2)ncn1 [Example 377, 2-(4-(((6-(((1-amino-5,7-dimethylisoquinolin-6-yl)methyl)amino)pyrimidin-4-yl)amino)methyl)phenoxy)-N,N-dimethylacetamide] | < 1
Cc1cc2c(N)nccc2c(C)c1CNc1cc(NCc2ccc(CC(=O)N3CC4CC4C3)cc2)ncn1 (stereo not drawn) [Example 378, 2-(4-(((6-(((1-amino-5,7-dimethylisoquinolin-6-yl)methyl)amino)pyrimidin-4-yl)amino)methyl)phenyl)-1-(3-azabicyclo[3.1.0]hexan-3-yl)ethan-1-one] | < 1
Cc1cc2c(N)nccc2c(C)c1CNc1cc(N(Cc2ccc(Cn3cccn3)cc2C(F)(F)F)N=O)ncn1 [Example 381, N-(4-((1H-pyrazol-1-yl)methyl)-2-(trifluoromethyl)benzyl)-N-(6-(((1-amino-5,7-dimethylisoquinolin-6-yl)methyl)amino)pyrimidin-4-yl)nitrous amide] | 10 to 100
Cc1cc2c(N)nccc2c(C)c1CNc1cc(OCc2cn3nc(C4CC4)ccc3n2)nc(C(F)(F)F)n1 [Example 389, 6-(((6-((6-cyclopropylimidazo[1,2-b]pyridazin-2-yl)methoxy)-2-(trifluoromethyl)pyrimidin-4-yl)amino)methyl)-5,7-dimethylisoquinolin-1-amine] | 10 to 100
Cc1cc2c(N)nccc2c(C)c1CNc1nccc2c1cnn2Cc1cn2cc(C3CC3)cnc2n1 [Example 393, 6-(((1-((6-cyclopropylimidazo[1,2-a]pyrimidin-2-yl)methyl)-1H-pyrazolo[4,3-c]pyridin-4-yl)amino)methyl)-5,7-dimethylisoquinolin-1-amine] | 100 to 1000
Cc1cc2c(N)nccc2c(C)c1CNc1cc(OCc2cn3nc(C4CC4)cc(CN4CCCC4)c3n2)ncn1 [Example 394, 6-(((6-((6-cyclopropyl-8-(pyrrolidin-1-ylmethyl)imidazo[1,2-b]pyridazin-2-yl)methoxy)pyrimidin-4-yl)amino)methyl)-5,7-dimethylisoquinolin-1-amine] | < 1
Cc1cc2c(N)nccc2c(C)c1CNc1cc(OCc2cc3cc(C4CC4)ccc3s2)ncn1 [Example 395, 6-(((6-((5-cyclopropylbenzo[b]thiophen-2-yl)methoxy)pyrimidin-4-yl)amino)methyl)-5,7-dimethylisoquinolin-1-amine] | 10 to 100
CCOC(=O)C(C)(C)Cc1cc(C2CC2)cc2cc(COc3cc(NCc4c(C)cc5c(N)nccc5c4C)ncn3)nn12 [Example 396, ethyl 3-(2-(((6-(((1-amino-5,7-dimethylisoquinolin-6-yl)methyl)amino)pyrimidin-4-yl)oxy)methyl)-5-cyclopropylpyrazolo[1,5-a]pyridin-7-yl)-2,2-dimethylpropanoate] | 1 to 10
Cc1cc2c(N)nccc2c(C)c1CNc1cc(OCc2cn3c(=O)n(C4CC4)ccc3n2)ncn1 [Example 397, 2-(((6-(((1-amino-5,7-dimethylisoquinolin-6-yl)methyl)amino)pyrimidin-4-yl)oxy)methyl)-6-cyclopropylimidazo[1,2-c]pyrimidin-5(6H)-one] | 10 to 100
CCCCc1cc(COc2cc(NCc3c(C)cc4c(N)nccc4c3C)ncn2)cc2cc(Cl)c[n+]([O-])c12 [Example 399, 6-(((6-(((1-amino-5,7-dimethylisoquinolin-6-yl)methyl)amino)pyrimidin-4-yl)oxy)methyl)-8-butyl-3-chloroquinoline 1-oxide] | 10 to 100
CCCCc1cc(COc2cc(NCc3c(C)cc4c(N)nccc4c3C)ncn2)cc2cc(Cl)cnc12 [Example 402, 6-(((6-((8-butyl-3-chloroquinolin-6-yl)methoxy)pyrimidin-4-yl)amino)methyl)-5,7-dimethylisoquinolin-1-amine] | 100 to 1000
Cc1cc2c(N)nccc2c(C)c1CNc1cc(C(F)(F)c2cn3cc(C4CC4)ccc3n2)ncn1 [Example 404, 6-(((6-((6-cyclopropylimidazo[1,2-a]pyridin-2-yl)difluoromethyl)pyrimidin-4-yl)amino)methyl)-5,7-dimethylisoquinolin-1-amine] | 10 to 100

The remaining lines, values ahead:

EC50 [nM] | Structure (SMILES)
< 1 | Cc1cc2c(N)nccc2c(C)c1CNc1cc(NCc2ccc(Cc3nccs3)cc2)ncn1 [Example 362, N^4-((1-amino-5,7-dimethylisoquinolin-6-yl)methyl)-N^6-(4-(thiazol-2-ylmethyl)benzyl)pyrimidine-4,6-diamine]
< 1 | Cc1cc2c(N)nccc2c(C)c1CNc1cc(NCc2ccc(Cc3ccccn3)cc2)ncn1 [Example 363, N^4-((1-amino-5,7-dimethylisoquinolin-6-yl)methyl)-N^6-(4-(pyridin-2-ylmethyl)benzyl)pyrimidine-4,6-diamine]
< 1 | Cc1cc(CNc2cc(NCc3c(C)cc4c(N)nccc4c3C)ncn2)cc(C)c1Cn1cccn1 [Example 367, N^4-(4-((1H-pyrazol-1-yl)methyl)-3,5-dimethylbenzyl)-N^6-((1-amino-5,7-dimethylisoquinolin-6-yl)methyl)pyrimidine-4,6-diamine]
< 1 | Cc1cc2c(N)nccc2c(C)c1CNc1nncc(NCc2ccc(Cn3cccn3)cc2)n1 [Example 376, N^5-(4-((1H-pyrazol-1-yl)methyl)benzyl)-N^3-((1-amino-5,7-dimethylisoquinolin-6-yl)methyl)-1,2,4-triazine-3,5-diamine]
< 1 | Cc1cc2c(N)nccc2c(C)c1CNc1cc(NCc2ccc(Cn3cccn3)cc2F)ncn1 [Example 379, N^4-(4-((1H-pyrazol-1-yl)methyl)-2-fluorobenzyl)-N^6-((1-amino-5,7-dimethylisoquinolin-6-yl)methyl)pyrimidine-4,6-diamine]
1 to 10 | Cc1cc2c(N)nccc2c(C)c1CNc1cc(NCc2ccc(Cn3cccn3)cc2C(F)(F)F)ncn1 [Example 380, N^4-(4-((1H-pyrazol-1-yl)methyl)-2-(trifluoromethyl)benzyl)-N^6-((1-amino-5,7-dimethylisoquinolin-6-yl)methyl)pyrimidine-4,6-diamine]
1 to 10 | Cc1cc2c(N)nccc2c(C)c1CNc1cc(NCc2ccc(C(F)(F)n3cccn3)cc2)ncn1 [Example 382, N^4-((1-amino-5,7-dimethylisoquinolin-6-yl)methyl)-N^6-(4-(difluoro(1H-pyrazol-1-yl)methyl)benzyl)pyrimidine-4,6-diamine]
< 1 | Cc1cc2c(N)nccc2c(C)c1CNc1cc(NCc2ccc(Cn3cccn3)c(C(F)(F)F)c2)ncn1 [Example 383, N^4-(4-((1H-pyrazol-1-yl)methyl)-3-(trifluoromethyl)benzyl)-N^6-((1-amino-5,7-dimethylisoquinolin-6-yl)methyl)pyrimidine-4,5-diamine]
< 1 | Cc1cc2c(N)nccc2c(C)c1CNc1cc(NCc2ccc(Cn3cccn3)cc2F)cnn1 [Example 385, N^5-(4-((1H-pyrazol-1-yl)methyl)-2-fluorobenzyl)-N^3-((1-amino-5,7-dimethylisoquinolin-6-yl)methyl)pyridazine-3,5-diamine]

Same assay, conditions: Primary Dose Response Assay: Average EC50, 500 pM activated kallikrein; 300 μM PFR-AMC; 30 min preincubation; 10 min room temperature; pH 7.5

EC50 [nM] | Structure (SMILES)
< 1 | Cc1cc2c(N)nccc2c(C)c1CNc1cc(NCc2ccc(CC(=O)N(C)C)cc2)ncn1 [Example 375, 2-(4-(((6-(((1-amino-5,7-dimethylisoquinolin-6-yl)methyl)amino)pyrimidin-4-yl)amino)methyl)phenyl)-N,N-dimethylacetamide]
